In patent US20220283177A1, “METHOD FOR DETECTING INTERACTION AND AFFINITY BETWEEN LIGAND AND PROTEIN” (DALIAN INSTITUTE OF CHEMICAL PHYSICS, CHINESE ACADEMY OF …, priority 2019, published 2022):

How the values were obtained:
GSK-3a = GSK-3a (Homo sapiens, UniProt P49840); experiment: Solvent mixture (A.E.A.)-based SIP, quantitative proteomics, SNS-032; details: 100 μM SNS-032, 293T cell lysate, 13% A.E.A. (FIG. 2F)
Source text: (§1) One portion of the supernatants was used for western blotting analysis and the left portion was used for MS-based quantification.

CDK9 [1] = biological target: T1, CDK9 (Homo sapiens, UniProt P50750); experiment: CA-based SIP, western blotting, SNS-032; format: binding; details: 100 μM SNS-032, 293T cell lysate, CA gradient
T1 sequence (P50750 whole entry): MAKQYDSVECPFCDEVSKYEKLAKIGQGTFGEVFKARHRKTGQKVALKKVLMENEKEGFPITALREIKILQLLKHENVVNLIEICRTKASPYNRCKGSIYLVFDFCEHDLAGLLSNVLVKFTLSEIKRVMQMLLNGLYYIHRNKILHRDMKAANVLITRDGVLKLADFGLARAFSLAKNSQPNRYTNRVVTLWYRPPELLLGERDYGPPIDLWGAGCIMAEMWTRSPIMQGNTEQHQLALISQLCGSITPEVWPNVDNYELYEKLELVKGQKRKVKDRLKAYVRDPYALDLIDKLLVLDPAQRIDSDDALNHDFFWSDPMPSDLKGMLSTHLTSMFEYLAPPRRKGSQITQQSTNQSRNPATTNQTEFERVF
T1 sequence (O60563 whole entry partner): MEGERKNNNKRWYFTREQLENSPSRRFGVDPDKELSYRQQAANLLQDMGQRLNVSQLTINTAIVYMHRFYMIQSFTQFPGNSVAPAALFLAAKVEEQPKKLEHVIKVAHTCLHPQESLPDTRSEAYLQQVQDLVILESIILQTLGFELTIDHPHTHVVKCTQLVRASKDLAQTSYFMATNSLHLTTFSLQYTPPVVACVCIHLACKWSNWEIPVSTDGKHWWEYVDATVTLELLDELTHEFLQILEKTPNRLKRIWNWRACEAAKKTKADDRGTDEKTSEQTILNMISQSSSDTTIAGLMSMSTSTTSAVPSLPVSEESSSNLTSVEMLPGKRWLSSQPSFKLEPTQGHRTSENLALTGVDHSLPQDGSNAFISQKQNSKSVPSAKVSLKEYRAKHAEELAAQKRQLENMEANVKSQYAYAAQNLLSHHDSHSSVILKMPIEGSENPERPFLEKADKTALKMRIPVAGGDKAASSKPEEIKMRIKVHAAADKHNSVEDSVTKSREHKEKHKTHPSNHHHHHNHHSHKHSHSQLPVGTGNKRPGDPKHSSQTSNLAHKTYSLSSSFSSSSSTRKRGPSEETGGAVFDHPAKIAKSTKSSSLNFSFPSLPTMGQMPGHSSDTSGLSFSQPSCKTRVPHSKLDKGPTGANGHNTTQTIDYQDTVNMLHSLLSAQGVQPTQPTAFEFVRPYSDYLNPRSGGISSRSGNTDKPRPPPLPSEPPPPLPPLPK
Source text: The procedure of western blotting was as same as Sample 1.

CDK9 [2] = biological target: T1, CDK9; experiment: Solvent mixture (A.E.A.)-based SIP, western blotting, SNS-032; details: 100 μM SNS-032, 293T cell lysate, high percentage of A.E.A.
Source text: as §1

[3] = withdrawn from clinical trials; cited from earlier work
NDUFV1 = NDUFV1 (Homo sapiens, UniProt P49821); experiment: Affinity evaluation by solvent mixture-based SIP dose response (western blotting)
Sequence of NDUFV1 (P49821 21-464): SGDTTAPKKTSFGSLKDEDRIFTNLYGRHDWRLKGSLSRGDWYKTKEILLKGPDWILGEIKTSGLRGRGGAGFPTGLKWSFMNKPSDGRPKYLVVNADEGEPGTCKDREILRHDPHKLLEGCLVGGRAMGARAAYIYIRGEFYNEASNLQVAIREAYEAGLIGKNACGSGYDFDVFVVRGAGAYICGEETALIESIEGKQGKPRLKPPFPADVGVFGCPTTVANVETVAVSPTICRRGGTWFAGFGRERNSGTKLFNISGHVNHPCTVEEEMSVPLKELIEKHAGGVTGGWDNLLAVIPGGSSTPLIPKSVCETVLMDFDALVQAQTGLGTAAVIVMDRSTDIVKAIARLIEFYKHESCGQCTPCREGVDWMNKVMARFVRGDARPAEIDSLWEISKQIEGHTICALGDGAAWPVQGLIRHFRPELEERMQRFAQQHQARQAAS
Source text: The calculation equation: Y=min+(max−min)/(1+10^((Log EC50−X)*Hill Slope)), Y is the protein abundance, X is the different drug concentrations, min and max are the minimum and maximum values of the corresponding protein abundance on the Y axis, respectively. Hill Slope is the absolute value of the maximum slope of the curve (i.e., the midpoint of the curve).

Sequence of GSK-3a (P49840 whole entry): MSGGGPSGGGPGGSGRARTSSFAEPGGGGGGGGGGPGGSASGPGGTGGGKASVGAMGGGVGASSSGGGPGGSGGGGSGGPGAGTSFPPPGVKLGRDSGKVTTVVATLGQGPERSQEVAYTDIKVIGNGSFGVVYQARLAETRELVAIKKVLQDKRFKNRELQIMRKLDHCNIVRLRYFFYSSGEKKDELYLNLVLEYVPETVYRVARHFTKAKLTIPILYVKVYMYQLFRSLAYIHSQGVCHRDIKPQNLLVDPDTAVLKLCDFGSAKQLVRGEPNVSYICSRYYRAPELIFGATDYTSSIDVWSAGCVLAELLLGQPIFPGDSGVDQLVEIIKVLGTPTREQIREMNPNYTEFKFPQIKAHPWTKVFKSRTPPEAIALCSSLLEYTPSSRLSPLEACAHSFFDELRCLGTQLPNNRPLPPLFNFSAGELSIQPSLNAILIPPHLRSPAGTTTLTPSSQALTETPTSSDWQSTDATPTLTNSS

Structure (SMILES)	average log 2 FC (H/L normalization ratio) of GSK-3a (GSK-3a)	abundance of CDK9 by western blotting (CDK9 [1])	stabilization of CDK9 by western blotting (CDK9 [2])	side effects in clinical trials [3]	EC50 (NDUFV1)
CC(C)(C)c1cnc(CSc2cnc(NC(=O)C3CCNCC3)s2)o1 [SNS-032]	1.13	higher as compared with that in the control group	significant stabilization shifts	–	–
COC1=C2C[C@@H](C)C[C@H](OC)[C@H](O)[C@@H](C)/C=C(\C)[C@H](OC(N)=O)[C@@H](OC)/C=C\C=C(/C)C(=O)NC(=CC1=O)C2=O [geldanamycin]	–	–	–	severe hepatotoxicity	10 to 100 µM
